Organism: Rattus norvegicus
Test: Open TG-GATES - Regimen: Single
Type: toxicity, organism-based, Sprague-Dawley
Parameters: regimen Single, gender Male, age 6 weeks
Details: in vivo, po, route gavage; for Bas / Eos / Fbg / Hb / MCH / MCV / Mono / PT / Plat / RBC / Ret / WBC / Lym / Neu / APTT / Ht / MCHC: tissue Blood; for KIDNEY_L / KIDNEY_R / KIDNEY_TOTAL: tissue Kidney; for LIVER: tissue Liver; for ALP / ALT / AST / BUN / CRE / Ca / DBIL / GLC / IP / K / LDH / Na / PL / RALB / TBIL / TC / TP / gamma-GTP / TG: tissue Plasma
[1] = 0 mg/kg, 3 h, dose level Control
[2] = 0 mg/kg, 6 h, dose level Control
[3] = 0 mg/kg, 9 h, dose level Control
[4] = 0 mg/kg, 24 h, dose level Control
[5] = 100 mg/kg, 24 h, dose level Low

## O=C(O)c1cn(C2CC2)c2cc(N3CCNCC3)c(F)cc2c1=O [CIPROFLOXACIN]
[1]
  TERMINAL_BW: 180.9 g
  Bas: 0%
  Eos: 0.6%
  Fbg: 202.2 mg/dL
  Hb: 13 g/dL
  MCH: 21.8 pg
  MCV: 65.5 fL
  Mono: 6%
  PT: 12.5 s
  Plat: 103.5 x10_4/uL
  RBC: 598.8 x10_4/ul
  Ret: 9.9%
  WBC: 128.2 x10_2/uL
  KIDNEY_L: 0.8 g
  KIDNEY_R: 0.9 g
  KIDNEY_TOTAL: 1.7 g
  LIVER: 8.3 g
  ALP: 1050.6 IU/L
  ALT: 38.4 IU/L
  AST: 70.6 IU/L
  BUN: 13.8 mg/dL
  CRE: 0.4 mg/dL
  Ca: 10.8 mg/dL
  DBIL: 0.008 mg/dL
  GLC: 186.6 mg/dL
  IP: 9.5 mg/dL
  K: 4.9 meq/L
  LDH: 92.6 IU/L
  Na: 138.2 meq/L
  PL: 130.8 mg/dL
  RALB: 3.8 g/dL
  TBIL: 0.4 mg/dL
  TC: 73.6 mg/dL
  TP: 5.4 g/dL
  gamma-GTP: 1.8 IU/L
[2]
  TERMINAL_BW: 182.4 g
  Bas: 0%
  Eos: 0.6%
  Fbg: 211 mg/dL
  Hb: 12.6 g/dL
  Lym: 77%
  MCH: 21.8 pg
  MCV: 66.3 fL
  Mono: 6.8%
  Neu: 15.6%
  PT: 12.5 s
  Plat: 103 x10_4/uL
  RBC: 579 x10_4/ul
  Ret: 10.8%
  WBC: 125 x10_2/uL
  KIDNEY_L: 0.9 g
  KIDNEY_R: 0.9 g
  KIDNEY_TOTAL: 1.8 g
  LIVER: 8.5 g
  ALP: 839.4 IU/L
  ALT: 36.6 IU/L
  BUN: 10.4 mg/dL
  CRE: 0.5 mg/dL
  DBIL: 0.024 mg/dL
  GLC: 186.4 mg/dL
  IP: 9.9 mg/dL
  K: 5.1 meq/L
  LDH: 103.2 IU/L
  Na: 138.2 meq/L
  PL: 136 mg/dL
  RALB: 3.7 g/dL
  TBIL: 0.4 mg/dL
  TC: 80.6 mg/dL
  TG: 42.2 mg/dL
  TP: 5.5 g/dL
  gamma-GTP: 1.4 IU/L
[3]
  TERMINAL_BW: 177.8 g
  APTT: 17 s
  Bas: 0%
  Eos: 0.4%
  Fbg: 213.4 mg/dL
  Hb: 12.4 g/dL
  Ht: 37.5%
  Lym: 82.6%
  MCH: 21.7 pg
  MCHC: 33.1%
  MCV: 65.6 fL
  Mono: 6.8%
  Neu: 10%
  PT: 11.7 s
  Plat: 116.2 x10_4/uL
  RBC: 572.4 x10_4/ul
  Ret: 10.6%
  WBC: 115.5 x10_2/uL
  KIDNEY_L: 0.8 g
  KIDNEY_R: 0.8 g
  KIDNEY_TOTAL: 1.7 g
  LIVER: 7.5 g
  ALP: 766 IU/L
  ALT: 32.4 IU/L
  AST: 68.4 IU/L
  BUN: 10.6 mg/dL
  CRE: 0.5 mg/dL
  Ca: 10.9 mg/dL
  DBIL: 0.056 mg/dL
  GLC: 193 mg/dL
  IP: 10.9 mg/dL
  K: 4.9 meq/L
  LDH: 92.4 IU/L
  Na: 139.2 meq/L
  PL: 120.4 mg/dL
  RALB: 3.8 g/dL
  TBIL: 0.3 mg/dL
  TC: 71.8 mg/dL
  TG: 29 mg/dL
  TP: 5.5 g/dL
  gamma-GTP: 1.4 IU/L
[4]
  TERMINAL_BW: 194.5 g
  APTT: 16.4 s
  Bas: 0%
  Eos: 1%
  Fbg: 209.2 mg/dL
  Hb: 13.1 g/dL
  Lym: 80%
  MCH: 22 pg
  MCHC: 33.4%
  MCV: 65.8 fL
  Mono: 7.2%
  Plat: 103.8 x10_4/uL
  RBC: 598.2 x10_4/ul
  Ret: 9.7%
  WBC: 132.8 x10_2/uL
  KIDNEY_L: 0.9 g
  KIDNEY_R: 0.9 g
  KIDNEY_TOTAL: 1.8 g
  LIVER: 9.8 g
  ALP: 1038.8 IU/L
  ALT: 47 IU/L
  AST: 74.8 IU/L
  BUN: 17.4 mg/dL
  CRE: 0.5 mg/dL
  Ca: 11.3 mg/dL
  DBIL: 0.074 mg/dL
  GLC: 187.2 mg/dL
  IP: 8.3 mg/dL
  K: 4.7 meq/L
  LDH: 96.8 IU/L
  Na: 138.8 meq/L
  PL: 157.2 mg/dL
  RALB: 4 g/dL
  TBIL: 0.3 mg/dL
  TC: 89 mg/dL
  TG: 89.4 mg/dL
  TP: 5.7 g/dL
  gamma-GTP: 1.2 IU/L
100 mg/kg, 3 h, dose level Low
  TERMINAL_BW: 185.5 g
  APTT: 16.8 s
  Bas: 0%
  Eos: 0.8%
  Fbg: 213 mg/dL
  Hb: 12.9 g/dL
  Ht: 38.6%
  Lym: 78.4%
  MCV: 67.5 fL
  Mono: 8.4%
  Neu: 12.8%
  PT: 12.3 s
  Plat: 104.3 x10_4/uL
  RBC: 572.8 x10_4/ul
  Ret: 10.8%
  WBC: 106 x10_2/uL
  KIDNEY_L: 0.8 g
  KIDNEY_R: 0.9 g
  KIDNEY_TOTAL: 1.7 g
  LIVER: 9.1 g
  ALP: 856.2 IU/L
  ALT: 35 IU/L
  AST: 68.6 IU/L
  BUN: 12.4 mg/dL
  CRE: 0.5 mg/dL
  Ca: 11.2 mg/dL
  DBIL: 0.018 mg/dL
  GLC: 192 mg/dL
  IP: 9.8 mg/dL
  K: 4.9 meq/L
  LDH: 81.4 IU/L
  Na: 139 meq/L
  PL: 144.4 mg/dL
  RALB: 3.7 g/dL
  TBIL: 0.4 mg/dL
  TC: 84.6 mg/dL
  TG: 45.6 mg/dL
  TP: 5.5 g/dL
  gamma-GTP: 1.4 IU/L
100 mg/kg, 6 h, dose level Low
  TERMINAL_BW: 179.2 g
  APTT: 17.2 s
  Bas: 0%
  Eos: 0.4%
  Fbg: 216.6 mg/dL
  Hb: 13 g/dL
  Lym: 73%
  MCH: 21.4 pg
  MCHC: 33.2%
  MCV: 64.5 fL
  Mono: 6%
  PT: 12.4 s
  Plat: 102.1 x10_4/uL
  RBC: 608.4 x10_4/ul
  Ret: 10.5%
  WBC: 119.3 x10_2/uL
  KIDNEY_L: 0.9 g
  KIDNEY_R: 0.9 g
  KIDNEY_TOTAL: 1.7 g
  LIVER: 8.1 g
  ALP: 779.4 IU/L
  ALT: 33.6 IU/L
  AST: 70.4 IU/L
  BUN: 10.8 mg/dL
  CRE: 0.5 mg/dL
  Ca: 11.4 mg/dL
  DBIL: 0.05 mg/dL
  GLC: 182.4 mg/dL
  IP: 10.3 mg/dL
  K: 5.4 meq/L
  LDH: 98 IU/L
  Na: 138.8 meq/L
  PL: 128.2 mg/dL
  RALB: 3.9 g/dL
  TBIL: 0.3 mg/dL
  TC: 71.4 mg/dL
  TG: 39.8 mg/dL
  TP: 5.6 g/dL
  gamma-GTP: 1 IU/L
100 mg/kg, 9 h, dose level Low
  TERMINAL_BW: 174.2 g
  APTT: 16.2 s
  Bas: 0%
  Eos: 1%
  Fbg: 215 mg/dL
  Hb: 13.5 g/dL
  Lym: 77.2%
  MCV: 67.9 fL
  Mono: 5.2%
  Neu: 17%
  PT: 11.5 s
  Plat: 100.5 x10_4/uL
  RBC: 605.8 x10_4/ul
  Ret: 9.9%
  WBC: 77 x10_2/uL
  KIDNEY_L: 0.9 g
  KIDNEY_R: 0.9 g
  KIDNEY_TOTAL: 1.8 g
  LIVER: 7.3 g
  ALP: 813.2 IU/L
  ALT: 33.6 IU/L
  AST: 68.8 IU/L
  BUN: 11 mg/dL
  CRE: 0.5 mg/dL
  Ca: 10.9 mg/dL
  DBIL: 0.066 mg/dL
  GLC: 190 mg/dL
  IP: 11.5 mg/dL
  K: 4.9 meq/L
  LDH: 94.2 IU/L
  Na: 139.6 meq/L
  PL: 142.4 mg/dL
  RALB: 3.8 g/dL
  TBIL: 0.2 mg/dL
  TC: 88.4 mg/dL
  TP: 5.6 g/dL
  gamma-GTP: 1.4 IU/L
[5]
  TERMINAL_BW: 191.7 g
  Bas: 0%
  Eos: 1%
  Fbg: 218 mg/dL
  Hb: 13.5 g/dL
  Ht: 40.5%
  Lym: 77%
  MCH: 22.1 pg
  MCHC: 33.4%
  MCV: 66.3 fL
  Mono: 7%
  Neu: 15%
  Plat: 105.4 x10_4/uL
  RBC: 610.4 x10_4/ul
  Ret: 9.2%
  WBC: 102.8 x10_2/uL
  KIDNEY_L: 0.9 g
  KIDNEY_R: 0.9 g
  KIDNEY_TOTAL: 1.7 g
  LIVER: 8 g
  ALP: 953.6 IU/L
  ALT: 40.4 IU/L
  AST: 74.6 IU/L
  BUN: 17.2 mg/dL
  CRE: 0.5 mg/dL
  Ca: 11.2 mg/dL
  DBIL: 0.058 mg/dL
  GLC: 191.6 mg/dL
  IP: 9.2 mg/dL
  K: 4.7 meq/L
  Na: 139.4 meq/L
  PL: 161.4 mg/dL
  RALB: 3.8 g/dL
  TBIL: 0.3 mg/dL
  TC: 100 mg/dL
  TP: 5.9 g/dL
